Values of other authors in publication PMC13092032, “Unlocking the potential of alkaline polymethacrylates via ionic crosslinking in amorphous solid dispersions” (International Journal of Pharmaceutics: X, 2026).

Conditions: Table 2; no method or source printed

SMILES | Log P
Cc1ccc(-c2cc(C(F)(F)F)nn2-c2ccc(S(N)(=O)=O)cc2)cc1 [Celecoxib] | 3.5
O=C1Nc2ccc(Cl)cc2[C@@](C#CC2CC2)(C(F)(F)F)O1 [Efavirenz] | 4.7
